Each structure is given as a SMILES string.

The results in this text go back to patent US20050233377A1, “Drug screening method for the treatment of brain damage” (priority 2004, published 2005).

One data set concerns the target T1, PDZ2 of PSD-95 (Rattus norvegicus, UniProt P31016).
T1 construct: His tag (N); made in house; host or cells: Escherichia coli BL21 (DE3), pET14b
In words: NMR chemical shift perturbation assay (1H-15N HSQC) of binding to 15N-labeled PDZ2. The note with it: for structural perturbation of PDZ2 (chemical shift of amide groups of Ser 173 and Ala 231 normalized to maximal shift with crude extract = 100%): 10-fold excess of compound relative to PDZ2. The method, then: In this specific non-limiting example, the PDZ-domain of recombinant PSD-95 was uniformly labeled with ^15N using the recombinant protein production method described. The ^15N-labeled PSD-95 was expressed in and purified from E. coli bacterial cells. The NMR spectra was acquired at 30° C. on Varian Inova 500 or 750 spectrometers each equipped with a 5 mm z-shielded gradient triple resonance probes. Lyophilized ^15N-labeled PDZ2 protein dissolved in 100 mM potassium phosphate buffer at pH 6.0, with a pure recombinant protein concentration of ˜0.1-0.2 mM (typically 0.5 ml in 100 mM phosphate buffer) for spectral analysis.
Since the identity of every resonances of the ^1H-^15N HSQC spectrum of PSD-95 PDZ domains is known, and the three dimensional structures of the PSD-95 PDZ domains could be elucidated, the quantitative values of compound-induced chemical shift changes for each amino acid residues of PSD-95 PDZ2 were computed using the equation: Δppm=[(ΔδHN)^2+(ΔδN·αN)^2]^1/2
The scaling factor αN used to normalize ^1H and ^15N chemical shifts was 0.17. ΔδHN corresponded to the change of the ^15N-bonded hydrogen chemical shift of a specific resonance, while ΔδN corresponded to the change of the ^15N chemical shift of that resonance.
In this method, the PDZ domain of PSD-95 is expressed recombinantly as described in Example 1 and uniformly labeled with ^15N using a recombinant protein production method. […]
Using preparation techniques mentioned above, a ^1H,^15N HSQC spectrum was recorded for each mixture of bound PDZ2 protein, and compared with the ^1H,^15N HSQC spectrum of free PSD-95 PDZ2 (˜0.1 mM in the same buffer). […]
The observation of chemical shift changes (with respect to the free PDZ2) as a result of mixing the protein with the herbal mixtures or pure compounds was scored as positive binding of compound(s) to PDS-95 PDZ2. […]
The binding affinity of the compounds to PDZ2 of PSD-95 was quantified by normalizing the chemical shift of the amide groups of Ser 173 and Ala 231 in relation to the maximal shift of these groups upon incubation with the crude extract (100%). […]

Data set [1] is classed as physicochemical. The text has this: Both compounds were therefore dissolved in DMSO for the NMR titration experiments.

T1 sequence (P31016 156-249): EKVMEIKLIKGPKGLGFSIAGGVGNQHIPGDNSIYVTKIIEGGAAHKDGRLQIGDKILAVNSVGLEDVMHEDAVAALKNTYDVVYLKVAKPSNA

On to `O=C(O)[C@H]1O[C@@H](Oc2cc3oc(-c4ccccc4)cc(=O)c3c(O)c2O)[C@H](O)[C@@H](O)[C@@H]1O` [baicalin], for which the “structural perturbation of PDZ2 (chemical shift of amide groups of Ser 173 and Ala 231 normalized to maximal shift with crude extract = 100%)” value on PDZ2 of PSD-95 is given as “around 60%”. Moreover, on PDZ2 of PSD-95 (15N-labeled PDZ2 0.1-0.2 mM, 100 mM phosphate buffer pH 6.0), the “chemical shift changes of PSD-95 PDZ2 HSQC spectrum relative to free PDZ2 (scored as positive binding)” value was “significant chemical shift changes”. Besides, the “solubility in H2O” value in data set [1] was “very poor solubility”.
In the case of `O=C(O)[C@H]1O[C@@H](Oc2cc(O)c3c(=O)cc(-c4ccccc4)oc3c2O)[C@H](O)[C@@H](O)[C@@H]1O` [norwogonoside], at PDZ2 of PSD-95, the “structural perturbation of PDZ2 (chemical shift of amide groups of Ser 173 and Ala 231 normalized to maximal shift with crude extract = 100%)” value is reported as “around 60%”.
`COc1c(O[C@@H]2O[C@H](C(=O)O)[C@@H](O)[C@H](O)[C@H]2O)cc(O)c2c(=O)cc(-c3ccccc3)oc12` [wogonoside]: the “solubility in H2O” value in data set [1] is “very poor solubility”.
